Here are results for seven molecules from ChEMBL document CHEMBL1154435, “Synthesis and anti-inflammatory activity evaluation of unsymmetrical selenides” (Eur J Med Chem, 2008).

Data set [1] concerns Mus musculus. As to the kind of experiment: Safety ratio for toxicity to antiinflammatory activity in po dosed mouse. Format: functional.
Data set [2] has as its system Rattus norvegicus. The experiment in a line: Antiinflammatory activity against cotton pellets-induced inflammation in Wistar rat assessed as wet weight of granuloma at 10 mg/kg, po after 7 days. It is filed as functional.
Data set [3] is described as follows: Acute toxicity in po dosed mouse assessed as death within 7 days. The conditions noted are these: in vivo. Format: organism-based.
In data set [4] the test system is Rattus norvegicus. The experiment in a line: Antiinflammatory activity against cotton pellets-induced inflammation in Wistar rat assessed as final weight of granuloma at 10 mg/kg, po after 7 days. It is filed as functional.
The test system of data set [5] is Rattus norvegicus. As to the kind of experiment: Antiinflammatory activity against cotton pellets-induced inflammation in Wistar rat assessed as dry weight of granuloma at 10 mg/kg, po after 7 days. It is filed as functional.
In data set [6] the test system is Mus musculus. As to the kind of experiment: Acute toxicity in mouse assessed as occurrence of ataxia and respiratory problems at 600 mg/kg, po within 7 days. It is filed as organism-based. Further details: dose 600 mg/kg, route oral. The following applies: in vivo, 168 h.
Data set [7] concerns Rattus norvegicus. As to the kind of experiment: Antiinflammatory activity against cotton pellets-induced inflammation in Wistar rat assessed as dry weight of granuloma at 5 mg/kg, po after 7 days. It is filed as functional.
The subject of data set [8] is Rattus norvegicus. The experiment in a line: Antiinflammatory activity against cotton pellets-induced inflammation in Wistar rat assessed as final weight of granuloma at 5 mg/kg, po after 7 days. Format: functional.
Data set [9] concerns Rattus norvegicus. The experiment in a line: Antiinflammatory activity against cotton pellets-induced inflammation in Wistar rat assessed as wet weight of granuloma at 5 mg/kg, po after 7 days. It is filed as functional.

As to `C#CC[Se]c1ccc(C(=O)NC)cc1`, in the data set on Mus musculus [1], the Ratio entry was “>=60”. For the same molecule, the results for the Activity with Rattus norvegicus [2], with Rattus norvegicus [4] and in the data set on Rattus norvegicus [5] were 0.447 g, 41.3 mg and 0.096 g, respectively. In addition, the LD50 at 168 h in [3] is greater than 600 mg/kg.

On to `CNC(=O)c1ccc([Se]C=C(C)C)cc1`, for which the Ratio result in the data set on Mus musculus [1] is recorded as “>=60”. Moreover, the Activity in the data set on Rattus norvegicus [2] is 0.369 g; with Mus musculus [6], “Toxic”; with Rattus norvegicus [4] it was 33.2 mg; with Rattus norvegicus [5] it was 0.087 g. Also, the LD50 at 168 h in data set [3] stood at 600 mg/kg.

Regarding `COc1ccc2c(c1)c(CC(=O)O)c(C)n2C(=O)c1ccc(Cl)cc1` [INDOMETHACIN], the Ratio with Mus musculus [1] worked out at 3.3. Moreover, the Activity in the data set on Rattus norvegicus [7] came to 0.072 g; in the data set with Rattus norvegicus [8] it was 21.8 mg; with Rattus norvegicus [9] it was 0.307 g. Further, the LD50 at 168 h in data set [3] was 33 mg/kg.

As for `C#CC[Se]c1ccccc1C(=O)O`, the Ratio result with Mus musculus [1] was “>=60”. In addition, the Activity in the data set with Rattus norvegicus [2] was 0.353 g; in the data set with Mus musculus [6], “Toxic”; with Rattus norvegicus [4], 30.9 mg; with Rattus norvegicus [5], 0.081 g. Further, the median lethal dose (LD50) at 168 h in data set [3] worked out at 600 mg/kg.

As for `CNC(=O)c1ccc([Se]Cc2ccccc2)cc1`, in the data set with Mus musculus [1], the Ratio entry was “>=60”. Also, the Activity with Rattus norvegicus [2] was found to be 0.414 g; in the data set on Rattus norvegicus [4], 35.7 mg; with Rattus norvegicus [5] it was 0.089 g. In addition, the LD50 at 168 h in [3] was greater than 600 mg/kg.

Turning to `CC(C)=C[Se]c1ccccc1C(=O)O`, the Ratio result in the data set with Mus musculus [1] is reported as “>=60”. The Activity is listed as 0.406 g with Rattus norvegicus [2], 32.8 mg in the data set with Rattus norvegicus [4] and 0.084 g with Rattus norvegicus [5]. Also, in data set [3], the LD50 at 168 h was greater than 600 mg/kg.

On to `O=C(O)C[Se]c1ccccc1C(=O)O`, for which the Ratio result with Mus musculus [1] is given as “>=60”. Besides, the Activity in the data set on Rattus norvegicus [2] was 0.378 g; in the data set on Rattus norvegicus [4], 33.8 mg; in the data set on Rattus norvegicus [5], 0.085 g. For the same molecule, the median lethal dose (LD50) at 168 h in data set [3] was greater than 600 mg/kg.
